Laboratory results reported in paper PMC3602653, “The brain slice method for studying drug distribution in the CNS” (Fluids and Barriers of the CNS, 2013).

How the values were obtained:
[1] = Brain slice method, unbound volume of distribution in the brain (rat); type: in vitro ADME; conditions: SD rat brain slices, 5 h incubation at 37°C; mean (standard deviation)
Text: (§1) Drug-naïve male Sprague–Dawley 250–300 g rats and Naval Medical Research Institute (NMRI) 25–30 g mice were used (Taconic, Lille Skensved, Denmark).
(§2) The composition of artificial cerebrospinal fluid or extracellular fluid (aECF) is crucial. […] Ascorbic acid is used as a natural free-radical scavenger to protect the cell membranes from lipid peroxidation and the brain slices from swelling [21].
(§3) When deciding on the compounds of each cassette, the pKa values of the compounds should be taken into account. Because high concentrations of weak bases can increase the pH of the acidic intracellular compartments, the extent of lysosomal trapping of a weak base could be affected by the existence of another weak base. […] Consequently, it is recommended that the final aECF concentration of each studied compound in the cassette should be 100–200 nM and the total concentration of the studied compounds should not exceed 1 μM [18].
(§4) Drug-naïve rats/mice are anesthetized with inhalation anesthesia using 5% isoflurane. When deep anesthesia is reached, up to 10 ml of blood (rats) is collected intracardially. The animal is then decapitated and the skull quickly opened. The isolated brain is immediately placed into blank ice-cold aECF saturated with oxygen. In our experience, the brains should be sliced within 15–20 minutes of harvesting to retain their viability.
(§5) After discarding the first one or two brain slices, 6 (rat brain) or 10 (mouse brain) consecutive 300 μm brain slices are cut on a coronal plane, starting approximately 1.7 mm anterior to the bregma (rostral striatum).
(§6) The incubation-equilibration process is started by gently transferring the 6 (rat) or 10 (mouse) brain slices from the storage beaker (using a micro double-ended spatula) into one 45 mm high, 80 mm diameter, flat-bottomed glass beaker (Duran Group, VWR, Sweden) containing 15 ml (rat) or 10 ml (mouse) of the aECF containing the selection of drugs to be investigated (Figure 1C). The beaker is then filled with humidified 100% oxygen over the aECF and covered with a custom-fabricated lid (Figure 1D) composed of a Teflon fluorinated ethylene-propylene (FEP) film (50 Å, 12.7 μm thick; DuPont, Katco Ltd, UK) as designed by Potter and DeMarse with minor modifications [23]. A “blank” beaker is also incubated in parallel to check stability of the compounds added into the buffer.
(§7) Finally, the beaker is placed inside the small plastic box in the incubated shaker (e.g. MaxQ4450 Thermo Fisher Scientific, NinoLab, Sweden) for 5 h at 37°C (Figure 1E). Control of the temperature by an external thermometer is recommended. A rotation speed of 45 rpm and oxygen flow of about 75–80 ml per minute through a glass frit apparatus appear sufficient.
(§8) Since the unbound drug concentration in the brain slice interstitial fluid at equilibrium is taken to be equal to the drug concentration in the aECF in the beaker, the presence of any minor debris from the brain tissue should be avoided in the sampled aECF after the 5 h incubation. To achieve this, the beaker needs to sit still for 5 minutes after finishing the incubation before sampling the aECF.

[2] = Brain slice method, unbound volume of distribution in the brain (mouse); conditions: NMRI mouse brain slices, 5 h incubation at 37°C; mean (standard deviation)
Text: as §1, §2, §3, §4, §5, §6, §7, §8

[3] = cited from earlier work
[4] = Unbound brain-to-plasma concentration ratio (Kp,uu,brain), BBB net flux, from Kp,brain, Vu,brain and fu,plasma; conditions: Kp,brain corrected for brain tissue uptake (Vu,brain from brain slice method) and plasma protein binding (fu,plasma)
Text: It has been proposed by Fridén et al. that in vitro determination of Vu,brain in combination with in vivo determination of the total brain-to-plasma concentration ratio (Kp,brain) and in vitro determination of the fraction of unbound drug in plasma (fu,plasma) would allow rapid evaluation of unbound brain-to-plasma concentration ratio (Kp,uu,brain) (Figure 2). Moreover, combining Vu,brain with fu,brain would allow estimation of the unbound intracellular-to-extracellular concentration ratio (Kp,uu,cell). It is essential to emphasize that, in terms of predicting Cu,brainISF or Kp,uu,brain, rank ordering of compounds with respect to Vu,brain is futile, since there is no causal relationship.
Complex evaluation of the abovementioned neuropharmacokinetic parameters gives insight to drug distribution in the brain. For instance, analogue of γ-aminobutyric acid gabapentin has Kp,brain equal to 0.64 [26]. However, after correction of Kp,brain for brain tissue uptake (using Vu,brain derived from the brain slice method) and plasma protein binding (using fu,plasma) the BBB net flux was estimated as a 0.14 meaning that only 14% of unbound drug in plasma is passing the BBB. Moreover, after passing BBB gabapentin (substrate to the large neutral amino acid transporter) tends to accumulate in the cells as it could be judged from Kp,uu,cell equal to 4.55 [6].

[5] = cited from earlier work; remark: listed apart in the source

Structure (SMILES)	Vu,brain [1]	Vu,brain [2]	Kp,uu,cell (unbound intracellular-to-extracellular concentration ratio) [3]	Kp uu [4]	Kp,brain (total brain-to-plasma concentration ratio) [5]
CC(=O)O[C@@]12CO[C@@H]1C[C@H](O)[C@@]1(C)C(=O)[C@H](O)C3=C(C)[C@@H](OC(=O)[C@H](O)[C@@H](NC(=O)OC(C)(C)C)c4ccccc4)C[C@@](O)([C@@H](OC(=O)c4ccccc4)[C@H]21)C3(C)C [Docetaxel]	777 (217) ml·g brain^-1	796 (177) ml·g brain^-1	–	–	–
Fc1ccc([C@@H]2CCNC[C@H]2COc2ccc3c(c2)OCO3)cc1 [Paroxetine]	714 (72) ml·g brain^-1	596 (97) ml·g brain^-1	–	–	–
COc1ccc2c(c1)c(CC(=O)O)c(C)n2C(=O)c1ccc(Cl)cc1 [Indomethacin]	14.1 (1.8) ml·g brain^-1	12.0 (1.8) ml·g brain^-1	–	–	–
NCC1(CC(=O)O)CCCCC1 [Gabapentin]	4.49 (0.29) ml·g brain^-1	4.22 (0.93) ml·g brain^-1	4.55	0.14	0.64
CSc1ccc2c(c1)N(CCC1CCCCN1C)c1ccccc1S2 (stereo not shown) [Thioridazine]	2650 (232) ml·g brain^-1	1930 (170) ml·g brain^-1	–	–	–
